Measurements published in patent US20230277534A1 (Plexxikon Inc., priority 2011, published 2023).

How the values were obtained:
[1] = tested on: IPC-298 human melanoma cell line that expresses activated NRAS; experiment: IPC-298_P-ERK cell activation assay (phosphorylated ERK, AlphaScreen); type: cell-based; details: 1 h, IPC-298 cells, P-ERK activation, compound for one hour
Protocol: B9 is a squamous cell carcinoma cell line expressing activated HRAS that was isolated from a DMBA/TPA-induced mouse model of skin carcinogenesis (Stoler, et al. The Journal of Cell Biology, 1993, 122(5), 1103-17). IPC-298 is a human melanoma cell line that expresses activated NRAS (Aubert, et al. International Journal of Cancer, 1993, 54(5), 784-92). To determine whether compounds induce phosphorylated ERK and MEK, cells are plated in a 96-well dish and treated with an 8-point titration of compound for one hour at 37° C. The media is then removed and the cells are incubated with lysis buffer containing protease and phosphatase inhibitors. Phosphorylated ERK and MEK in the resulting lysates is detected using AlphaScreen™ technology. To detect phosphorylated ERK, cell lysates are incubated with streptavidin-coated donor beads, anti-mouse IgG acceptor beads, a biotinylated anti-ERK1/2 rabbit antibody, and a mouse antibody that recognizes ERK1/2 only when it is phosphorylated on Thr202 and Tyr204. The biotinylated ERK1/2 antibody will bind to both the streptavidin-coated donor beads and to ERK1/2 (regardless of its phosphorylation state), and the phospho-ERK1/2 antibody will bind to the acceptor beads and to ERK1/2 that is phosphorylated at Thr202/Tyr204. Excitation of the beads with laser light at 680 nm produces singlet oxygen, which is rapidly quenched unless the beads are in close proximity. When ERK is phosphorylated, both antibodies can bind the same protein, bringing the donor and acceptor beads into close proximity, producing a signal that can be measured at 580 nm. MEK phosphorylation is detected using a similar approach, only with antibodies directed against total MEK1/2 and MEK1/2 that is phosphorylated at Ser217 and Ser221.

[2] = tested on: COLO205 colon adenocarcinoma cells (B-Raf V600E mutation); experiment: COLO205 cell growth inhibition (ATPlite); type: cell-based; details: Homo sapiens, COLO 205, 72 h, 3 days
How it was run: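 Cells treated for 3 days at 37 °C, 5% CO2 with an 8-point 1:3 dilution series, top final concentration 10 μM, DMSO control. ATPlite luminescence used as a measure of cell number; IC50 from reading versus concentration.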

B-Raf V600E = B-Raf V600E (Homo sapiens (Human), UniProt P15056, V600E); experiment: B-Raf V600E kinase biochemical activity assay (AlphaScreen, biotin-MEK1 substrate); details: 100 μM ATP
How it was run: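 IC50 was derived from AlphaScreen signal (anti-phospho-MEK1/2 antibody with streptavidin donor and Protein A acceptor beads, 3 h) across 8 compound concentrations. The kinase step ran 45 min at room temperature: 0.1 ng B-Raf V600E, 100 nM biotin-MEK1, 100 μM final ATP, pH 7.0 HEPES with MgCl2/MnCl2.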

Sequence of B-Raf V600E (P15056 whole entry V600E): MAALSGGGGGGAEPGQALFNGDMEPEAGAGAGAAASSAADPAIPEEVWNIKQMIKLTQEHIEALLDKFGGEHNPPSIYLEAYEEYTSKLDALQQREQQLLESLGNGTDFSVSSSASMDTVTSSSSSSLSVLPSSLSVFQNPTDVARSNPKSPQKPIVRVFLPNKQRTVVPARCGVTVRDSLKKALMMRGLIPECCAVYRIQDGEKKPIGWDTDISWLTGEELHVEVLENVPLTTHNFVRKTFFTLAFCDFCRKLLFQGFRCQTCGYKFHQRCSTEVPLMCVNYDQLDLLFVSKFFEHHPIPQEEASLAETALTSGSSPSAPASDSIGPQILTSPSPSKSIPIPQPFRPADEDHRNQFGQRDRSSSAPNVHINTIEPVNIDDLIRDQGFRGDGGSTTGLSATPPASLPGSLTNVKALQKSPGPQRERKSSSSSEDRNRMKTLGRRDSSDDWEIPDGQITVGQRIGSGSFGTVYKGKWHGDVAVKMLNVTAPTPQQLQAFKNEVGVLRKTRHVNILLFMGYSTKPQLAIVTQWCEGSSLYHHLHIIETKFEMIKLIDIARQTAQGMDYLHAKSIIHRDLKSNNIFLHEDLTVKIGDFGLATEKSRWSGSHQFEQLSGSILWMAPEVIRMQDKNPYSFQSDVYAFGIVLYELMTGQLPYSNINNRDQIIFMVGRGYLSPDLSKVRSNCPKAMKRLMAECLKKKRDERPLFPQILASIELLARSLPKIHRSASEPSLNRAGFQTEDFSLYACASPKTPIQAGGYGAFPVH

CCN(C)S(=O)(=O)Nc1ccc(F)c(C(=O)c2c[nH]c3ncc(Cl)cc23)c1F [Compound P-0012, 5-chloro-3-[3-[[ethyl(methyl)sulfamoyl]amino]-2,6-difluoro-benzoyl]-1H-pyrrolo[2,3-b]pyridine] was tested, and the EC50 [1] was > 10 µM, the IC50 [2] was > 1 µM and the IC50 (B-Raf V600E) was < 0.1 µM.

With CCN(C)S(=O)(=O)Nc1ccc(F)c(C(=O)c2c[nH]c3ncc(C#N)cc23)c1F [Compound P-0017, 5-cyano-3-[3-[[ethyl(methyl)sulfamoyl]amino]-2,6-difluoro-benzoyl]-1H-pyrrolo[2,3-b]pyridine] the EC50 [1] was > 10 µM, the IC50 [2] was > 1 µM and the IC50 (B-Raf V600E) was < 0.1 µM.

In the case of CCN(C)S(=O)(=O)Nc1cccc(C(=O)c2c[nH]c3ncc(Cl)cc23)c1F [Compound P-0018, 5-chloro-3-[3-[[ethyl(methyl)sulfamoyl]amino]-2-fluoro-benzoyl]-1H-pyrrolo[2,3-b]pyridine], the EC50 [1] is reported as > 10 µM, the IC50 [2] is reported as > 1 µM and the IC50 (B-Raf V600E) is reported as < 0.1 µM.

With Cc1cnc2[nH]cc(C(=O)c3cccc(NS(=O)(=O)N4CCCC4)c3F)c2c1 [Compound P-0023, N-[2-fluoro-3-(5-methyl-1H-pyrrolo[2,3-b]pyridine-3-carbonyl)phenyl]pyrrolidine-1-sulfonamide] the EC50 [1] was > 10 µM, the IC50 [2] was > 1 µM and the IC50 (B-Raf V600E) was < 0.1 µM.

In the case of CCN(C)S(=O)(=O)Nc1cccc(C(=O)c2c[nH]c3ncc(Br)cc23)c1F [Compound P-0038, 5-bromo-3-[3-[[ethyl(methyl)sulfamoyl]amino]-2-fluoro-benzoyl]-1H-pyrrolo[2,3-b]pyridine], the EC50 [1] is reported as > 10 µM, the IC50 [2] is reported as > 1 µM and the IC50 (B-Raf V600E) is reported as < 0.1 µM.

In the case of CCCN(C)S(=O)(=O)Nc1cccc(C(=O)c2c[nH]c3ncc(-c4cnc(OC)nc4)cc23)c1F [Compound P-0040, 3-[2-fluoro-3-[[methyl(propyl)sulfamoyl]amino]benzoyl]-5-(2-methoxypyrimidin-5-yl)-1H-pyrrolo[2,3-b]pyridine], the EC50 [1] is reported as > 10 µM, the IC50 [2] is reported as < 1 µM and the IC50 (B-Raf V600E) is reported as < 0.1 µM.

In the case of O=C(c1cccc(NS(=O)(=O)N2CCCC2)c1F)c1c[nH]c2ncc(-c3cccnc3)cc12 [Compound P-0043, N-[2-fluoro-3-[5-(3-pyridyl)-1H-pyrrolo[2,3-b]pyridine-3-carbonyl]phenyl]pyrrolidine-1-sulfonamide], the EC50 [1] is reported as > 10 µM, the IC50 [2] is reported as < 1 µM and the IC50 (B-Raf V600E) is reported as < 0.1 µM.

In the case of Cc1ccc(-c2cnc3[nH]cc(C(=O)c4cccc(NS(=O)(=O)N5CCCC5)c4F)c3c2)cn1 [Compound P-0045, N-[2-fluoro-3-[5-(6-methyl-3-pyridyl)-1H-pyrrolo[2,3-b]pyridine-3-carbonyl]phenyl]pyrrolidine-1-sulfonamide], the EC50 [1] is reported as > 10 µM, the IC50 [2] is reported as < 1 µM and the IC50 (B-Raf V600E) is reported as < 0.1 µM.

In the case of CC(C)c1ncc(-c2cnc3[nH]cc(C(=O)c4cccc(NS(=O)(=O)N5CCCC5)c4F)c3c2)cn1 [Compound P-0047, N-[2-fluoro-3-[5-(2-isopropylpyrimidin-5-yl)-1H-pyrrolo[2,3-b]pyridine-3-carbonyl]phenyl]pyrrolidine-1-sulfonamide], the EC50 [1] is reported as > 10 µM, the IC50 [2] is reported as < 1 µM and the IC50 (B-Raf V600E) is reported as < 0.1 µM.

O=C(c1cccc(NS(=O)(=O)N2CCCC2)c1F)c1c[nH]c2ncc(-c3cnc(C4CC4)nc3)cc12 [Compound P-0048, N-[3-[5-(2-cyclopropylpyrimidin-5-yl)-1H-pyrrolo[2,3-b]pyridine-3-carbonyl]-2-fluoro-phenyl]pyrrolidine-1-sulfonamide] was tested, and the EC50 [1] was > 10 µM, the IC50 [2] was < 1 µM and the IC50 (B-Raf V600E) was < 0.1 µM.

In the case of COc1cc(-c2cnc3[nH]cc(C(=O)c4c(F)ccc(NS(=O)(=O)N5CCCC5)c4F)c3c2)ccn1 [Compound P-0287, N-[2,4-difluoro-3-[5-(2-methoxy-4-pyridyl)-1H-pyrrolo[2,3-b]pyridine-3-carbonyl]phenyl]pyrrolidine-1-sulfonamide], the EC50 [1] is reported as > 4 µM and the IC50 [2] is reported as < 1 µM.
